Measurements: ChEMBL document CHEMBL5236617, “Rapid Evolution of a Fragment-like Molecule to Pan-Metallo-Beta-Lactamase Inhibitors: Initial Leads toward Clinical Candidates” (J Med Chem, 2022)
Activity calls are given as the source filed them. The rule behind the calls is not given here.

Columns and labels:
[1] = Inhibition of GST-tagged bacterial beta-lactamase […] expressed in Escherichia coli BL21(DE3) using CCF2-FA as substrate by fluorescence assay; set-up: species or system Bacteria
[2] = Inhibition of GST-tagged bacterial beta-lactamase IMP-1 expressed in Escherichia coli BL21(DE3) using CCF2-FA as substrate by fluorescence assay; set-up: species or system Bacteria
[3] = Inhibition of GST-tagged bacterial beta-lactamase VIM-1 expressed in Escherichia coli BL21(DE3) using CCF2-FA as substrate by fluorescence assay; set-up: species or system Bacteria
Escherichia coli = assay: Potentiation of imipenem-induced antibacterial activity against NDM-1 expressing Escherichia coli assessed as imipenem MIC incubated for 22 to 24 hrs (reference value: 32 ug/ml); type: functional; settings: time 22-24 hrs
Serratia marcescens = assay: Potentiation of imipenem-induced antibacterial activity against IMP-1 expressing Serratia marcescens assessed as imipenem MIC incubated for 22 to 24 hrs (reference value: 16 ug/ml); type: functional; settings: time 22-24 hrs
Klebsiella pneumoniae [4] = assay: Potentiation of imipenem-induced antibacterial activity against VIM-1 expressing Klebsiella pneumoniae assessed as imipenem MIC incubated for 22 to 24 hrs (reference value: 16 ug/ml); type: functional; settings: time 22-24 hrs
[5] = Inhibition of Cav1.5 (unknown origin); set-up: species or system Homo sapiens
Klebsiella pneumoniae [6] = assay: Antibacterial activity against Klebsiella pneumoniae MB9249 expressing IMP-26 infected in cyclophosphamide treated DBA/2 mouse assessed as reduction in bacterial burden in kidney at 10 to 50 mg/kg, sc administered three times for 1 day and measured after 24 hrs post injection; type: functional, organism-based; settings: dose 10-50 mg/kg
Klebsiella pneumoniae [7] = assay: Antibacterial activity against Klebsiella pneumoniae MB9249 expressing IMP-26 infected in cyclophosphamide treated DBA/2 mouse assessed as reduction in bacterial burden in spleen at 10 to 50 mg/kg, sc administered three times for 1 day and measured after 24 hrs post injection; type: functional, organism-based; settings: dose 10-50 mg/kg
Klebsiella pneumoniae [8] = assay: Antibacterial activity against Klebsiella pneumoniae MB9249 expressing IMP-26 infected in cyclophosphamide treated DBA/2 mouse assessed as reduction in bacterial burden in kidney at 10 to 50 mg/kg, sc administered three times for 1 day and measured after 24 hrs post injection in presence of imipenem; type: functional, organism-based; settings: dose 10-50 mg/kg
Klebsiella pneumoniae [9] = assay: Antibacterial activity against Klebsiella pneumoniae MB9249 expressing IMP-26 infected in cyclophosphamide treated DBA/2 mouse assessed as reduction in bacterial burden in spleen at 10 to 50 mg/kg, sc administered three times for 1 day and measured after 24 hrs post injection in presence of imipenem; type: functional, organism-based; settings: dose 10-50 mg/kg
[10] = Selectivity ratio of MITC50 for NDM-1 expressing Escherichia coli to IC50 for GST-tagged bacterial beta-lactamase […]
[11] = Selectivity ratio of MITC50 for IMP-1 expressing Serratia marcescens to IC50 for GST-tagged bacterial beta-lactamase IMP-1
[12] = Selectivity ratio of MITC50 for VIM-1 expressing Klebsiella pneumoniae to IC50 for GST-tagged bacterial beta-lactamase VIM-1

SMILES	IC50 [1]	IC50 [2]	IC50 [3]	MITC95 (Escherichia coli)	MITC95 (Klebsiella pneumoniae [4])	other results
NS(=O)(=O)c1nccc(-c2ccc(CO)cc2)c1-c1nn[nH]n1	35 nM	369 nM	269 nM	0.558 µM	11.76 µM	MITC95 (Serratia marcescens): 5.19 µM; IC50 [5]: > 30000 nM; Activity (Klebsiella pneumoniae [6]): inactive; Activity (Klebsiella pneumoniae [7]): inactive; Activity (Klebsiella pneumoniae [8]): Active; Activity (Klebsiella pneumoniae [9]): Active
CCCc1c(OCc2cccc(-c3ccccc3-c3nnn[nH]3)c2)ccc(C(C)=O)c1O	35 nM	1 nM	23 nM			
CNS(=O)(=O)c1cccc(-c2ccc(C)cc2)c1-c1nnn[nH]1	15800 nM	> 20000 nM	18000 nM			
NS(=O)(=O)c1cccc(-c2ccncc2)c1-c1nn[nH]n1	36 nM	485 nM	285 nM	0.45 µM	25 µM	MITC95 (Serratia marcescens): 9.37 µM; Selectivity ratio [10]: 12; Selectivity ratio [11]: 19; Selectivity ratio [12]: 87
NS(=O)(=O)c1cncc(-c2ccc(CO)cc2)c1-c1nn[nH]n1	21 nM	678 nM	670 nM	1.56 µM	100 µM	
Cc1ccc(-c2cccc(C(=O)O)c2-c2nnn[nH]2)cc1	3170 nM	2410 nM	6960 nM			
OCc1ccc(-c2cccc(O)c2-c2nnn[nH]2)cc1	704 nM	> 20000 nM	7200 nM			

Stronger by IC50 [1], values ahead:

IC50 [1]	IC50 [2]	IC50 [3]	SMILES	MITC95 (Escherichia coli)	MITC95 (Klebsiella pneumoniae [4])	other results
3.5 nM	2.7 nM	7.4 nM	CC(CS)C(=O)N1CCc2ccccc2C1C(=O)O (configuration not stated)			
3 nM	330 nM	90 nM	NS(=O)(=O)c1cccc(-c2ccccn2)c1-c1nn[nH]n1	0.78 µM	25 µM	
2.4 nM	46 nM	58 nM	NS(=O)(=O)c1cccc(-c2ccc(CO)cc2)c1-c1nn[nH]n1		50 µM	
0.243 nM	0.155 nM	2.48 nM	O=C(O)COc1ccc2c(c1)CCN(C(=O)C(CS)CCc1ccccc1)C2C(=O)O (configuration not stated)			
